Source: patent US7161032B2, “Sulfonamide derivatives, insecticides for agricultural and horticultural use, and usage thereof” (Nihon Nohyaku Co., Ltd., priority 2002, dated 2007)

Assays:
Assay type in all cases: in vivo
[1] = test system: Smaller Tea Tortrix (Adoxophyes sp.); test: Insecticidal effect on smaller tea tortrix (Test Example 3): tea leaves immersed in 50 ppm liquid chemical; details: smaller tea tortrix (Adoxophyes sp.) larvae, 8 days after inoculation, 25° C., humidity 70%
Protocol: Tea leaves were immersed for about 30 seconds in a liquid chemical prepared by diluting a preparation containing each compound listed in Table 1 or 2 as an active ingredient to adjust the concentration to 50 ppm. After air-dryness, the tea leaves were placed in a plastic Petri dish with a diameter of 9 cm and inoculated with larvae of smaller tea tortrix, after which the dish was allowed to stand in a room thermostated at 25° C. and having a humidity of 70%. Eight days after the inoculation, the dead and alive were counted and the insecticidal effect was judged according to the criterion shown in Test Example 1. The test was carried out with triplicate groups of 10 insects.

[2] = test system: Common Cutworm (Spodoptera litura); test: Insecticidal effect on common cutworm (Test Example 2): cabbage leaf piece immersed in 50 ppm liquid chemical; details: common cutworm (Spodoptera litura) second-instar larvae, 8 days after inoculation, 25° C.
Protocol: A piece of cabbage leaf (cultivar: Shikidori) was immersed for about 30 seconds in a liquid chemical prepared by diluting a preparation containing each compound listed in Table 1 or 2 as an active ingredient to adjust the concentration to 50 ppm. After air-dryness, it was placed in a plastic Petri dish with a diameter of 9 cm and inoculated with second-instar larvae of common cutworm, after which the dish was closed and then allowed to stand in a room thermostated at 25° C. Eight days after the inoculation, the dead and alive were counted. The mortality was calculated according to the following equation and the insecticidal effect was judged according to the criterion shown in Test Example 1. The test was carried out with triplicate groups of 10 insects. [formula]

[3] = test system: Diamond Back Moth (Plutella xylostella); test: Insecticidal effect on diamond back moth (Test Example 1): egg-bearing Chinese cabbage seedling immersed in 50 ppm liquid chemical
Protocol: Adult diamond back moths were released and allowed to oviposit on a Chinese cabbage seedling. Two days after the release, the seedling having the eggs deposited thereon was immersed for about 30 seconds in a liquid chemical prepared by diluting a preparation containing each compound listed in Table 1 or 2 as an active ingredient to adjust the concentration to 50 ppm. After air-dryness, it was allowed to stand in a room thermostated at 25° C. Six days after the immersion, the hatched insects were counted. The mortality was calculated according to the following equation and the insecticidal effect was judged according to the criterion shown below. The test was carried out with triplicate groups of 10 insects. [formula]

SMILES	Insecticidal effect (mortality grade), Test Example 3 [1]	Insecticidal effect (mortality grade), Test Example 2 [2]	Insecticidal effect (mortality grade), Test Example 1 [3]
Cc1cc(C(F)(C(F)(F)F)C(F)(F)F)ccc1NC(=O)c1cccc(I)c1C(=O)NC(C)CS(N)(=O)=O (stereo not shown) [1-1]	A (Mortality 100%)	A (Mortality 100%)	A (Mortality 100%)
CNS(=O)(=O)CC(C)NC(=O)c1c(I)cccc1C(=O)Nc1ccc(C(F)(C(F)(F)F)C(F)(F)F)cc1C (stereo not shown) [1-2]	A (Mortality 100%)	A (Mortality 100%)	A (Mortality 100%)
Cc1cc(C(F)(C(F)(F)F)C(F)(F)F)ccc1NC(=O)c1cccc(I)c1C(=O)NC(C)CS(=O)(=O)N(C)C (stereo not shown) [1-3]	A (Mortality 100%)	A (Mortality 100%)	A (Mortality 100%)
CCNS(=O)(=O)CC(C)NC(=O)c1c(I)cccc1C(=O)Nc1ccc(C(F)(C(F)(F)F)C(F)(F)F)cc1C (stereo not shown) [1-4, N^2-(2-ethylsulfamoyl-1-methylethyl)-3-iodo-N^1-{2-methyl-4-[1,2,2,2-tetrafluoro-1-(trifluoromethyl)ethyl]phenyl}phthalamide]	A (Mortality 100%)	A (Mortality 100%)	A (Mortality 100%)
CCN(CC)S(=O)(=O)CC(C)NC(=O)c1c(I)cccc1C(=O)Nc1ccc(C(F)(C(F)(F)F)C(F)(F)F)cc1C (stereo not shown) [1-6]	A (Mortality 100%)	A (Mortality 100%)	A (Mortality 100%)
CCCNS(=O)(=O)CC(C)NC(=O)c1c(I)cccc1C(=O)Nc1ccc(C(F)(C(F)(F)F)C(F)(F)F)cc1C (stereo not shown) [1-7]	A (Mortality 100%)	A (Mortality 100%)	A (Mortality 100%)
Cc1cc(C(F)(C(F)(F)F)C(F)(F)F)ccc1NC(=O)c1cccc(I)c1C(=O)NC(C)CS(=O)(=O)NC(C)C (stereo not shown) [1-8]	A (Mortality 100%)	A (Mortality 100%)	A (Mortality 100%)
CCCCNS(=O)(=O)CC(C)NC(=O)c1c(I)cccc1C(=O)Nc1ccc(C(F)(C(F)(F)F)C(F)(F)F)cc1C (stereo not shown) [1-12]	A (Mortality 100%)	A (Mortality 100%)	A (Mortality 100%)
Cc1cc(C(F)(C(F)(F)F)C(F)(F)F)ccc1NC(=O)c1cccc(I)c1C(=O)NC(C)CS(=O)(=O)NC(C)(C)C (stereo not shown) [1-14]	A (Mortality 100%)	A (Mortality 100%)	A (Mortality 100%)
C=CCNS(=O)(=O)CC(C)NC(=O)c1c(I)cccc1C(=O)Nc1ccc(C(F)(C(F)(F)F)C(F)(F)F)cc1C (stereo not shown) [1-20]	A (Mortality 100%)	A (Mortality 100%)	A (Mortality 100%)
C#CCNS(=O)(=O)CC(C)NC(=O)c1c(I)cccc1C(=O)Nc1ccc(C(F)(C(F)(F)F)C(F)(F)F)cc1C (stereo not shown) [1-21]	A (Mortality 100%)	A (Mortality 100%)	A (Mortality 100%)
Cc1cc(C(F)(C(F)(F)F)C(F)(F)F)ccc1NC(=O)c1cccc(I)c1C(=O)NC(C)CS(=O)(=O)NCc1ccccc1 (stereo not shown) [1-22]	A (Mortality 100%)	A (Mortality 100%)	A (Mortality 100%)
Cc1cc(C(F)(C(F)(F)F)C(F)(F)F)ccc1NC(=O)c1cccc(I)c1C(=O)NC(C)CS(=O)(=O)NCc1ccccc1F (stereo not shown) [1-23]	A (Mortality 100%)	A (Mortality 100%)	A (Mortality 100%)
Cc1cc(C(F)(C(F)(F)F)C(F)(F)F)ccc1NC(=O)c1cccc(I)c1C(=O)NC(C)CS(=O)(=O)NCc1ccccc1Cl (stereo not shown) [1-24]	A (Mortality 100%)	A (Mortality 100%)	A (Mortality 100%)
Cc1cc(C(F)(C(F)(F)F)C(F)(F)F)ccc1NC(=O)c1cccc(I)c1C(=O)NC(C)CS(=O)(=O)NCc1ccccc1Br (stereo not shown) [1-25]	A (Mortality 100%)	A (Mortality 100%)	A (Mortality 100%)
COc1ccccc1CNS(=O)(=O)CC(C)NC(=O)c1c(I)cccc1C(=O)Nc1ccc(C(F)(C(F)(F)F)C(F)(F)F)cc1C (stereo not shown) [1-27]	A (Mortality 100%)	A (Mortality 100%)	A (Mortality 100%)
Cc1cc(C(F)(C(F)(F)F)C(F)(F)F)ccc1NC(=O)c1cccc(I)c1C(=O)NC(C)CS(=O)(=O)NCc1ccccc1[N+](=O)[O-] (stereo not shown) [1-28]	A (Mortality 100%)	A (Mortality 100%)	A (Mortality 100%)
COc1cccc(CNS(=O)(=O)CC(C)NC(=O)c2c(I)cccc2C(=O)Nc2ccc(C(F)(C(F)(F)F)C(F)(F)F)cc2C)c1 (stereo not shown) [1-29]	A (Mortality 100%)	A (Mortality 100%)	A (Mortality 100%)
Cc1cc(C(F)(C(F)(F)F)C(F)(F)F)ccc1NC(=O)c1cccc(I)c1C(=O)NC(C)CS(=O)(=O)NCc1cccc([N+](=O)[O-])c1 (stereo not shown) [1-30]	A (Mortality 100%)	A (Mortality 100%)	A (Mortality 100%)
Cc1cc(C(F)(C(F)(F)F)C(F)(F)F)ccc1NC(=O)c1cccc(I)c1C(=O)NC(C)CS(=O)(=O)NCc1cccc(C#N)c1 (stereo not shown) [1-31]	A (Mortality 100%)	A (Mortality 100%)	A (Mortality 100%)
COc1cccc(OC)c1CNS(=O)(=O)CC(C)NC(=O)c1c(I)cccc1C(=O)Nc1ccc(C(F)(C(F)(F)F)C(F)(F)F)cc1C (stereo not shown) [1-32]	A (Mortality 100%)	A (Mortality 100%)	A (Mortality 100%)
COc1ccc(CNS(=O)(=O)CC(C)NC(=O)c2c(I)cccc2C(=O)Nc2ccc(C(F)(C(F)(F)F)C(F)(F)F)cc2C)cc1 (stereo not shown) [1-35]	A (Mortality 100%)	A (Mortality 100%)	A (Mortality 100%)
CCNS(=O)(=O)CC(C)NC(=O)c1c(I)cccc1C(=O)Nc1ccc(C(F)(C(F)(F)F)C(F)(F)F)cc1C (stereo not shown) [1-142]	A (Mortality 100%)	–	–
